Molecular target: T1, HIV integrase (Human immunodeficiency virus type 1 group M subtype B, UniProt P12497, F1332H)
T1 construct: HIV integrase full length gene; made in house; host or cells: Escherichia coli BL21(DE3)
Experiment: Determination of enzyme (HIV integrase) inhibitory activity
Type: biochemical, HIV (Human Immunodeficiency Virus (type 1))
Details: recombinant integrase protein (F185H), strand transfer plate assay, absorbance at 450 nm
Source text: The following explains evaluation methods of the HIV integrase inhibitory activity of the compound of the present invention.
(i) Construction of Recombinant Integrase Gene Expression System
HIV integrase full length gene (J. Virol., 67, 425-437 (1993)) in which phenylalanine at codon 185 was substituted by histidine, was inserted between the restriction enzyme NdeI and XhoI sites of plasmid pET21a(+) (Novagen), whereby an integrase expression vector pET21a-IN-F185H was constructed.
(ii) Production and Purification of Integrase Protein
Escherichia coli recombinant BL21(DE3) transformed with plasmid pET21a-IN-F185H obtained in (i) was shake cultured at 30° C. in a liquid medium containing ampicillin. When the culture reached the logarithmic growth phase, isopropyl-β-D-thiogalactopyranoside was added to promote expression of integrase gene. The culture was continued for 3 hr to promote accumulation of the integrase protein. The recombinant E. coli was collected in pellets by centrifugal separation and preserved at −80° C.
The E. coli was suspended in Lysis buffer ([…] HEPES (pH 7.5), 5 mM DTT, 10 mM CHAPS, 10% glycerol) containing 1M sodium chloride and subjected to repeat pressurization and depressurization for rupture, and centrifugal separation at 4° C., 40,000×g, 60 min to recover a water-soluble fraction (supernatant). This was diluted 10-fold with Lysis buffer free of sodium chloride, mixed with SP-Sepharose (GE healthcare Bioscience) and stirred at 4° C. for 60 min to allow adsorption of integrase protein to the resin. The resin was washed with Lysis buffer containing 100 mM sodium chloride and the integrase protein was eluted with Lysis buffer containing 1M sodium chloride.
The eluted integrase protein solution was subjected to a Superdex 75 (GE healthcare Bioscience) column for gel filtration. The protein was eluted with Lysis buffer containing 1M sodium chloride.
The obtained fractions of the integrase protein were collected and preserved at −80° C.
(iii) Preparation of DNA Solution
The following DNA synthesized by Greiner or FASMAC was dissolved in TE buffer (10 mM Tris-hydrochloric acid (pH 8.0), 1 mM EDTA) and mixed with donor DNA, target DNA, and each complementary strand (+ and − strands) to 1 μM. The mixture was heated at 95° C. for 5 min, 80° C. for 10 min, 70° C. for 10 min, 60° C. for 10 min, 50° C. for 10 min and 40° C. for 10 min and kept at 25° C. to give a double stranded DNA, which was used for the test.
(iv) Determination of Enzyme (HIV Integrase) Inhibitory Activity
The donor DNA was diluted with TE buffer to 10 nM (or 5 nM), of which 50 μl was added to each well of streptavidin-coated microtiter plate (Roche) and allowed to adsorb at 37° C. for 60 min. The plate was washed with phosphate buffer (Dulbecco's PBS, Sanko Junyaku Co., Ltd.) containing 0.1% Tween 20 and phosphate buffer. Then, an enzyme reaction mixture (70 μl), a test substance (10 μl) diluted with the enzyme reaction mixture and 100 μg/ml (or 64 μg/ml (2 μM)) integrase protein (10 μl) were added to each well and reacted at 37° C. for 60 min.
Composition of the enzyme reaction mixture: 30 mM MOPS (3-morpholinopropanesulfonic acid), 5 mM magnesium chloride, 3 mM DTT (dithiothreitol), 0.1 mg/ml BSA (bovine serum albumin), 5% glycerol, 10% DMSO (dimethyl sulfoxide), 0.01% Tween 20.
Then, 50 nM (or 25 nM) target DNA (10 μl) was added, reacted at 37° C. for 10 min and washed with phosphate buffer containing 0.1% Tween 20 to stop the reaction.
Then, 100 mU/ml peroxidase labeled anti-digoxigenin antibody solution (Roche, 100 μl) was added, and the mixture was reacted at 37° C. for 60 min, followed by washing with phosphate buffer containing 0.1% Tween 20.
A peroxidase color solution (Bio Rad, 100 μl) was added and allowed to react at room temperature for 4 min (or 3 min). The color reaction was stopped by adding IN sulfuric acid (100 μl). The absorbance at 450 nm was measured. […]

SMILES	IC50 [nM]
COc1cc2c(cc1Cc1cc(N3CCOCC3)cc(Cl)c1F)c(=O)c(C(=O)O)cn2[C@H](CO)C(C)(C)OC [Example 42, 6-[3-chloro-2-fluoro-5-(morpholin-4-yl)benzyl]-1-((R)-1-hydroxymethyl-2-methoxy-2-methylpropyl)-7-methoxy-4-oxo-1,4-dihydroquinoline-3-carboxylic acid]	< 10
CCc1cc2c(cc1Cc1cc(N3CCOCC3)cc(Cl)c1F)c(=O)c(C(=O)O)cn2[C@H](CO)C(C)(C)OC [Example 43, 6-[3-chloro-2-fluoro-5-(morpholin-4-yl)benzyl]-7-ethyl-1-((R)-1-hydroxymethyl-2-methoxy-2-methylpropyl)-4-oxo-1,4-dihydroquinoline-3-carboxylic acid]	< 10
CCc1cc2c(cc1Cc1cc(N3CCOCC3)cc(Cl)c1F)c(=O)c(C(=O)O)cn2[C@H](CO)CCOC [Example 44, 6-[3-chloro-2-fluoro-5-(morpholin-4-yl)benzyl]-7-ethyl-1-((S)-1-hydroxymethyl-3-methoxypropyl)-4-oxo-1,4-dihydroquinoline-3-carboxylic acid]	10 to 100
COc1cc2c(cc1Cc1cc(N3CCCC3=O)cc(Cl)c1F)c(=O)c(C(=O)O)cn2[C@H](CO)C(C)(C)C [Example 45, 6-[3-chloro-2-fluoro-5-(2-oxopyrrolidin-1-yl)benzyl]-1-((S)-1-hydroxymethyl-2,2-dimethylpropyl)-7-methoxy-4-oxo-1,4-dihydroquinoline-3-carboxylic acid]	< 10
COc1cc2c(cc1Cc1cc(N3CCCC3=O)c(F)c(Cl)c1F)c(=O)c(C(=O)O)cn2[C@H](CO)C(C)(C)C [Example 46, 6-[3-chloro-2,4-difluoro-5-(2-oxopyrrolidin-1-yl)benzyl]-1-((S)-1-hydroxymethyl-2,2-dimethylpropyl)-7-methoxy-4-oxo-1,4-dihydroquinoline-3-carboxylic acid]	< 10
COCC[C@@H](CO)n1cc(C(=O)O)c(=O)c2cc(Cc3cc(N4CCCC4=O)cc(Cl)c3F)c(OC)cc21 [Example 47, 6-[3-chloro-2-fluoro-5-(2-oxopyrrolidin-1-yl)benzyl]-1-((S)-1-hydroxymethyl-3-methoxypropyl)-7-methoxy-4-oxo-1,4-dihydroquinoline-3-carboxylic acid]	10 to 100
COc1cc2c(cc1Cc1cc(N3CCCC3=O)cc(Cl)c1F)c(=O)c(C(=O)O)cn2[C@H](CO)[C@@H](C)OC [Example 48, 6-[3-chloro-2-fluoro-5-(2-oxopyrrolidin-1-yl)benzyl]-1-((1R,2R)-1-hydroxymethyl-2-methoxypropyl)-7-methoxy-4-oxo-1,4-dihydroquinoline-3-carboxylic acid]	< 10
COc1cc2c(cc1Cc1cc(N3CCOCC3)c(F)c(Cl)c1F)c(=O)c(C(=O)O)cn2[C@H](CO)C(C)(C)C [Example 49, 6-[3-chloro-2,4-difluoro-5-(morpholin-4-yl)benzyl]-1-((S)-1-hydroxymethyl-2,2-dimethylpropyl)-7-methoxy-4-oxo-1,4-dihydroquinoline-3-carboxylic acid]	< 10
CCO[C@H](C)[C@@H](CO)n1cc(C(=O)O)c(=O)c2cc(Cc3cc(N4CCOCC4)cc(Cl)c3F)c(OC)cc21 [Example 50, 6-[3-chloro-2-fluoro-5-(morpholin-4-yl)benzyl]-1-[(1R,2R)-2-ethoxy-1-(hydroxymethyl)propyl]-7-methoxy-4-oxo-1,4-dihydroquinoline-3-carboxylic acid]	10 to 100
CC(C)(C)[C@@H](CO)n1cc(C(=O)O)c(=O)c2cc(Cc3cc(N4CCCC4=O)cc(Cl)c3F)ccc21 [Example 51, 6-[3-chloro-2-fluoro-5-(2-oxopyrrolidin-1-yl)benzyl]-1-((S)-1-hydroxymethyl-2,2-dimethylpropyl)-4-oxo-1,4-dihydroquinoline-3-carboxylic acid]	< 10

Reference: patent US7872004B2, “6-(heterocyclyl-substituted benzyl)-4-oxoquinoline compound and use thereof as HIV integrase inhibitor” (Japan Tobacco Inc., priority 2006, dated 2011)
